Source: ChEMBL document CHEMBL1201862, “PubChem BioAssay data set” (2004)
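Tested at 5 concentrations; 48 h exposure; 96-well plates; endpoints linearly interpolated, else capped at highest concentration. GI50 is the concentration that inhibits growth by half.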 Activity calls are given as the source filed them. Cut-off read from the data, not from the text of the source: active = GI50 up to about 1.1 µM and inactive = higher.

Key:
Assay in all cases: NCI-60 cell line screen, 48 h
[1] = tested on: HT-29
[2] = tested on: NCI-H522
[3] = tested on: MOLT-4
[4] = tested on: XF498
[5] = tested on: SNB-75
[6] = tested on: UACC-62
[7] = tested on: CAKI-1
[8] = tested on: LOX IMVI
[9] = tested on: KM-20L2
[10] = tested on: OVCAR-3
[11] = tested on: UACC-257
[12] = tested on: HCC 2998
[13] = tested on: TK-10
[14] = tested on: HOP-62
[15] = tested on: 786-0
[16] = tested on: SF-268
[17] = tested on: NCI-H23
[18] = tested on: SF-539
[19] = tested on: NCI-H460
[20] = tested on: NCI-H226
[21] = tested on: M14
[22] = tested on: A549
[23] = tested on: HOP-18
[24] = tested on: SF-295
[25] = tested on: SN12C
[26] = tested on: RPMI-8226
[27] = tested on: SNB-19
[28] = tested on: SR
[29] = tested on: OVCAR-8
[30] = tested on: SK-MEL-2
[31] = tested on: SK-OV-3
[32] = tested on: DMS-273
[33] = tested on: M19-MEL
[34] = tested on: DLD-1
[35] = tested on: EKVX
[36] = tested on: SK-MEL-5
[37] = tested on: U-251
[38] = tested on: KM12
[39] = tested on: CCRF-CEM
[40] = tested on: A498
[41] = tested on: RXF 393
[42] = tested on: HL-60
[43] = tested on: K562
[44] = tested on: HCT-116
[45] = tested on: HOP-92
[46] = tested on: SK-MEL-28
[47] = tested on: ACHN
[48] = tested on: COLO 205
[49] = tested on: SW-620
[50] = tested on: LXFL 529
[51] = tested on: HCT-15
[52] = tested on: OVCAR-4
[53] = tested on: UO-31
[54] = tested on: IGROV-1
[55] = tested on: Malme-3M
[56] = tested on: DMS-114
[57] = tested on: SNB-78
[58] = tested on: OVCAR-5

Measured: GI50

CN(C)CN(C)c1nc(N(C)C)nc(N(C)CN(C)C)n1
inactive: [1] 57.8 µM | [2] > 100 µM | [3] 26.2 µM | [4] 96.2 µM | [5] 60.3 µM | [6] 19.8 µM | [7] > 100 µM | [8] 22.9 µM | [9] 74.5 µM | [10] > 100 µM | [11] 34.7 µM | [12] > 100 µM | [13] > 100 µM | [14] > 100 µM | [15] 34.4 µM | [16] 51.6 µM | [17] 27.2 µM | [18] 50.4 µM | [19] 57.3 µM | [20] > 100 µM | [21] 36.7 µM | [22] > 100 µM | [23] > 100 µM | [24] > 100 µM | [25] 63.5 µM | [26] 27.2 µM | [27] > 100 µM | [28] 24.4 µM | [29] 27.9 µM | [30] 20.9 µM | [31] > 100 µM | [32] 17.5 µM | [33] 31.8 µM | [34] 42.7 µM | [35] > 100 µM | [36] 51.1 µM | [37] > 100 µM | [38] > 100 µM | [39] 25.7 µM | [40] > 100 µM | [41] 19.5 µM | [42] 17 µM | [43] 30.8 µM | [44] 32 µM | [45] 63 µM | [46] 25.8 µM | [47] 45.4 µM | [48] 27.8 µM | [49] 23.9 µM | [50] 30.3 µM | [52] 42.4 µM | [53] > 100 µM | [54] > 100 µM
24.7 µM: [51]

O=C(Nc1ccccc1-c1nn(CO)c(=S)n(CO)c1=O)C(F)(F)F
inactive: [1] > 100 µM | [2] > 100 µM | [3] > 100 µM | [4] > 100 µM | [5] 92.3 µM | [6] > 100 µM | [7] > 100 µM | [8] > 100 µM | [10] > 100 µM | [12] > 100 µM | [13] > 100 µM | [14] > 100 µM | [15] > 100 µM | [16] > 100 µM | [17] > 100 µM | [18] > 100 µM | [19] > 100 µM | [20] > 100 µM | [21] > 100 µM | [22] > 100 µM | [55] > 100 µM | [24] > 100 µM | [25] > 100 µM | [56] > 100 µM | [27] > 100 µM | [28] > 100 µM | [57] > 100 µM | [29] > 100 µM | [30] > 100 µM | [31] > 100 µM | [32] > 100 µM | [34] 95.7 µM | [35] > 100 µM | [36] 31.8 µM | [37] > 100 µM | [38] > 100 µM | [58] > 100 µM | [39] > 100 µM | [41] > 100 µM | [43] > 100 µM | [44] > 100 µM | [45] > 100 µM | [46] > 100 µM | [47] > 100 µM | [48] > 100 µM | [49] > 100 µM | [50] > 100 µM | [52] > 100 µM | [53] > 100 µM | [54] > 100 µM

COc1ccc(OC)c(NC(=O)CCC/C(CC(=O)c2ccc(O)c(OC)c2)=N\Nc2nnc(C)n2N)c1
inactive: [1] > 100 µM | [2] > 100 µM | [3] > 100 µM | [4] > 100 µM | [5] 37.9 µM | [6] > 100 µM | [7] > 100 µM | [8] > 100 µM | [9] > 100 µM | [10] > 100 µM | [11] > 100 µM | [12] > 100 µM | [13] > 100 µM | [14] > 100 µM | [15] > 100 µM | [16] > 100 µM | [17] > 100 µM | [18] > 100 µM | [19] > 100 µM | [20] > 100 µM | [21] > 100 µM | [22] > 100 µM | [23] > 100 µM | [55] > 100 µM | [24] > 100 µM | [25] > 100 µM | [56] 95.7 µM | [26] > 100 µM | [27] > 100 µM | [28] > 100 µM | [29] > 100 µM | [30] > 100 µM | [31] > 100 µM | [32] > 100 µM | [33] > 100 µM | [34] > 100 µM | [35] > 100 µM | [36] > 100 µM | [37] > 100 µM | [38] > 100 µM | [58] > 100 µM | [39] > 100 µM | [40] > 100 µM | [42] 90.2 µM | [43] 32.4 µM | [45] > 100 µM | [46] > 100 µM | [47] > 100 µM | [48] > 100 µM | [49] > 100 µM | [50] > 100 µM | [52] > 100 µM | [53] > 100 µM | [54] > 100 µM
> 100 µM: [51]
